# Key:
# Settings in all cases: exposure time: 72 h
# FT3469 [1] = normal neural stem cell line; test: surviving fraction (nuclei count normalised to DMSO); higher = more cells surviving (less toxic)
# E13 [2] = patient-derived glioblastoma stem cells of classical subtype; test: as above
# E57 [3] = patient-derived glioblastoma stem cells of mesenchymal subtype; test: as above
# E34 [4] = patient-derived glioblastoma stem cells of proneural subtype; test: as above
# E31 [5] = patient-derived glioblastoma stem cells of proneural subtype; test: as above
# E28 [6] = patient-derived glioblastoma stem cells of classical subtype; test: as above
# E21 [7] = patient-derived glioblastoma stem cells of mesenchymal subtype; test: as above
# FT3469 [8] = test: phenotypic distance (Euclidean, principal components) from DMSO controls (arbitrary units); higher = stronger morphological change
# E13 [9] = test: as above
# E57 [10] = test: as above
# E34 [11] = test: as above
# E31 [12] = test: as above
# E28 [13] = test: as above
# E21 [14] = test: as above
# 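For phenotypic distance (Euclidean, principal components) from DMSO controls in this document: cell Painting imaging in 384-well plates, CellProfiler features reduced to at least 20 principal components, Euclidean distance versus same-plate DMSO vehicle wells (0.1% v/v), median over six images per well.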
# 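For surviving fraction (nuclei count normalised to DMSO) in this document: nuclei counted by high-content imaging of Hoechst-stained cells in laminin-coated 384-well plates, relative to 0.1% DMSO vehicle wells, with staurosporine as cell-death control.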
compound,measurement,setting,value
Cc1ccc(S(=O)(=O)/C=C/C#N)cc1 [Bay 11-7082],surviving fraction,FT3469 [1]; 4.1 nM,0.987
same,surviving fraction,FT3469 [1]; 12.3 nM,0.984
same,surviving fraction,FT3469 [1]; 37 nM,0.932
same,surviving fraction,FT3469 [1]; 111.1 nM,0.814
same,surviving fraction,FT3469 [1]; 333.3 nM,0.809
same,surviving fraction,FT3469 [1]; 1000 nM,0.714
same,surviving fraction,FT3469 [1]; 3000 nM,0.0259
same,surviving fraction,E13 [2]; 4.1 nM,0.964
same,surviving fraction,E13 [2]; 12.3 nM,1.06
same,surviving fraction,E13 [2]; 37 nM,1.03
same,surviving fraction,E13 [2]; 111.1 nM,0.988
same,surviving fraction,E13 [2]; 333.3 nM,0.976
same,surviving fraction,E13 [2]; 1000 nM,0.692
same,surviving fraction,E13 [2]; 3000 nM,0.0324
same,surviving fraction,E57 [3]; 4.1 nM,0.965
same,surviving fraction,E57 [3]; 12.3 nM,0.935
same,surviving fraction,E57 [3]; 37 nM,0.978
same,surviving fraction,E57 [3]; 111.1 nM,0.894
same,surviving fraction,E57 [3]; 333.3 nM,0.905
same,surviving fraction,E57 [3]; 1000 nM,0.712
same,surviving fraction,E57 [3]; 3000 nM,0.107
same,surviving fraction,E34 [4]; 4.1 nM,1.17
same,surviving fraction,E34 [4]; 12.3 nM,0.972
same,surviving fraction,E34 [4]; 37 nM,1.03
same,surviving fraction,E34 [4]; 111.1 nM,0.881
same,surviving fraction,E34 [4]; 333.3 nM,1.04
same,surviving fraction,E34 [4]; 1000 nM,0.841
same,surviving fraction,E34 [4]; 3000 nM,0.208
same,surviving fraction,E31 [5]; 4.1 nM,0.981
same,surviving fraction,E31 [5]; 12.3 nM,1.12
same,surviving fraction,E31 [5]; 37 nM,1.07
same,surviving fraction,E31 [5]; 111.1 nM,0.915
same,surviving fraction,E31 [5]; 333.3 nM,0.833
same,surviving fraction,E31 [5]; 1000 nM,0.574
same,surviving fraction,E31 [5]; 3000 nM,0.00325
same,surviving fraction,E28 [6]; 4.1 nM,1.16
same,surviving fraction,E28 [6]; 12.3 nM,1.07
same,surviving fraction,E28 [6]; 37 nM,1.02
same,surviving fraction,E28 [6]; 111.1 nM,0.918
same,surviving fraction,E28 [6]; 333.3 nM,0.805
same,surviving fraction,E28 [6]; 1000 nM,0.523
same,surviving fraction,E28 [6]; 3000 nM,0.00427
same,surviving fraction,E21 [7]; 4.1 nM,1.01
same,surviving fraction,E21 [7]; 12.3 nM,1.06
same,surviving fraction,E21 [7]; 37 nM,0.902
same,surviving fraction,E21 [7]; 111.1 nM,1
same,surviving fraction,E21 [7]; 333.3 nM,0.952
same,surviving fraction,E21 [7]; 1000 nM,0.67
same,surviving fraction,E21 [7]; 3000 nM,0.000991
same,phenotypic distance,FT3469 [8]; 4.1 nM,0.889
same,phenotypic distance,FT3469 [8]; 12.3 nM,0.728
same,phenotypic distance,FT3469 [8]; 37 nM,0.551
same,phenotypic distance,FT3469 [8]; 111.1 nM,0.796
same,phenotypic distance,FT3469 [8]; 333.3 nM,1.04
same,phenotypic distance,FT3469 [8]; 1000 nM,2.13
same,phenotypic distance,FT3469 [8]; 3000 nM,17.6
same,phenotypic distance,E13 [9]; 4.1 nM,0.928
same,phenotypic distance,E13 [9]; 12.3 nM,0.789
same,phenotypic distance,E13 [9]; 37 nM,0.388
same,phenotypic distance,E13 [9]; 111.1 nM,0.428
same,phenotypic distance,E13 [9]; 333.3 nM,0.7
same,phenotypic distance,E13 [9]; 1000 nM,2.5
same,phenotypic distance,E13 [9]; 3000 nM,13.2
same,phenotypic distance,E57 [10]; 4.1 nM,0.529
same,phenotypic distance,E57 [10]; 12.3 nM,0.37
same,phenotypic distance,E57 [10]; 37 nM,0.668
same,phenotypic distance,E57 [10]; 111.1 nM,0.846
same,phenotypic distance,E57 [10]; 333.3 nM,1.16
same,phenotypic distance,E57 [10]; 1000 nM,2.8
same,phenotypic distance,E57 [10]; 3000 nM,8.7
same,phenotypic distance,E34 [11]; 4.1 nM,1.17
same,phenotypic distance,E34 [11]; 12.3 nM,0.478
same,phenotypic distance,E34 [11]; 37 nM,0.466
same,phenotypic distance,E34 [11]; 111.1 nM,0.813
same,phenotypic distance,E34 [11]; 333.3 nM,0.985
same,phenotypic distance,E34 [11]; 1000 nM,0.91
same,phenotypic distance,E34 [11]; 3000 nM,9.42
same,phenotypic distance,E31 [12]; 4.1 nM,0.798
same,phenotypic distance,E31 [12]; 12.3 nM,0.511
same,phenotypic distance,E31 [12]; 37 nM,0.513
same,phenotypic distance,E31 [12]; 111.1 nM,0.736
same,phenotypic distance,E31 [12]; 333.3 nM,0.957
same,phenotypic distance,E31 [12]; 1000 nM,1.61
same,phenotypic distance,E31 [12]; 3000 nM,15.2
same,phenotypic distance,E28 [13]; 4.1 nM,0.601
same,phenotypic distance,E28 [13]; 12.3 nM,0.591
same,phenotypic distance,E28 [13]; 37 nM,0.652
same,phenotypic distance,E28 [13]; 111.1 nM,1.11
same,phenotypic distance,E28 [13]; 333.3 nM,1.33
same,phenotypic distance,E28 [13]; 1000 nM,1.83
same,phenotypic distance,E28 [13]; 3000 nM,16.4
same,phenotypic distance,E21 [14]; 4.1 nM,0.363
same,phenotypic distance,E21 [14]; 12.3 nM,0.689
same,phenotypic distance,E21 [14]; 37 nM,0.461
same,phenotypic distance,E21 [14]; 111.1 nM,0.482
same,phenotypic distance,E21 [14]; 333.3 nM,0.803
same,phenotypic distance,E21 [14]; 1000 nM,2.09
same,phenotypic distance,E21 [14]; 3000 nM,18.7
NC(=O)c1ccccc1 [Benzamide],surviving fraction,FT3469 [1]; 4.1 nM,0.912
same,surviving fraction,FT3469 [1]; 12.3 nM,1.15
same,surviving fraction,FT3469 [1]; 37 nM,0.999
same,surviving fraction,FT3469 [1]; 111.1 nM,0.863
same,surviving fraction,FT3469 [1]; 333.3 nM,0.935
same,surviving fraction,FT3469 [1]; 1000 nM,0.921
same,surviving fraction,FT3469 [1]; 3000 nM,1.1
same,surviving fraction,E13 [2]; 4.1 nM,0.896
same,surviving fraction,E13 [2]; 12.3 nM,0.891
same,surviving fraction,E13 [2]; 37 nM,0.961
same,surviving fraction,E13 [2]; 111.1 nM,1.04
same,surviving fraction,E13 [2]; 333.3 nM,1.03
same,surviving fraction,E13 [2]; 1000 nM,0.945
same,surviving fraction,E13 [2]; 3000 nM,1.04
same,surviving fraction,E57 [3]; 4.1 nM,0.938
same,surviving fraction,E57 [3]; 12.3 nM,1.06
same,surviving fraction,E57 [3]; 37 nM,1.02
same,surviving fraction,E57 [3]; 111.1 nM,0.94
same,surviving fraction,E57 [3]; 333.3 nM,0.938
same,surviving fraction,E57 [3]; 1000 nM,0.896
same,surviving fraction,E57 [3]; 3000 nM,0.99
same,surviving fraction,E34 [4]; 4.1 nM,1.03
same,surviving fraction,E34 [4]; 12.3 nM,0.958
same,surviving fraction,E34 [4]; 37 nM,0.993
same,surviving fraction,E34 [4]; 111.1 nM,1.04
same,surviving fraction,E34 [4]; 333.3 nM,0.904
same,surviving fraction,E34 [4]; 1000 nM,1.29
same,surviving fraction,E34 [4]; 3000 nM,1.03
same,surviving fraction,E31 [5]; 4.1 nM,0.994
same,surviving fraction,E31 [5]; 12.3 nM,0.978
same,surviving fraction,E31 [5]; 37 nM,0.972
same,surviving fraction,E31 [5]; 111.1 nM,1.02
same,surviving fraction,E31 [5]; 333.3 nM,0.968
same,surviving fraction,E31 [5]; 1000 nM,1.07
same,surviving fraction,E31 [5]; 3000 nM,0.947
same,surviving fraction,E28 [6]; 4.1 nM,0.82
same,surviving fraction,E28 [6]; 12.3 nM,1.08
same,surviving fraction,E28 [6]; 37 nM,0.909
same,surviving fraction,E28 [6]; 111.1 nM,1.31
same,surviving fraction,E28 [6]; 333.3 nM,1.03
same,surviving fraction,E28 [6]; 1000 nM,1.09
same,surviving fraction,E28 [6]; 3000 nM,1.04
same,surviving fraction,E21 [7]; 4.1 nM,1.03
same,surviving fraction,E21 [7]; 12.3 nM,0.945
same,surviving fraction,E21 [7]; 37 nM,0.996
same,surviving fraction,E21 [7]; 111.1 nM,1.1
same,surviving fraction,E21 [7]; 333.3 nM,1.04
same,surviving fraction,E21 [7]; 1000 nM,0.872
same,surviving fraction,E21 [7]; 3000 nM,1
same,phenotypic distance,FT3469 [8]; 4.1 nM,0.505
same,phenotypic distance,FT3469 [8]; 12.3 nM,1.05
same,phenotypic distance,FT3469 [8]; 37 nM,0.628
same,phenotypic distance,FT3469 [8]; 111.1 nM,1.13
same,phenotypic distance,FT3469 [8]; 333.3 nM,0.522
same,phenotypic distance,FT3469 [8]; 1000 nM,1.07
same,phenotypic distance,FT3469 [8]; 3000 nM,0.83
same,phenotypic distance,E13 [9]; 4.1 nM,0.817
same,phenotypic distance,E13 [9]; 12.3 nM,0.661
same,phenotypic distance,E13 [9]; 37 nM,0.401
same,phenotypic distance,E13 [9]; 111.1 nM,0.597
same,phenotypic distance,E13 [9]; 333.3 nM,0.747
same,phenotypic distance,E13 [9]; 1000 nM,0.669
same,phenotypic distance,E13 [9]; 3000 nM,0.437
same,phenotypic distance,E57 [10]; 4.1 nM,0.41
same,phenotypic distance,E57 [10]; 12.3 nM,0.828
same,phenotypic distance,E57 [10]; 37 nM,0.568
same,phenotypic distance,E57 [10]; 111.1 nM,0.557
same,phenotypic distance,E57 [10]; 333.3 nM,0.555
same,phenotypic distance,E57 [10]; 1000 nM,0.56
same,phenotypic distance,E57 [10]; 3000 nM,0.478
same,phenotypic distance,E34 [11]; 4.1 nM,1.19
same,phenotypic distance,E34 [11]; 12.3 nM,0.687
same,phenotypic distance,E34 [11]; 37 nM,0.776
same,phenotypic distance,E34 [11]; 111.1 nM,1.03
same,phenotypic distance,E34 [11]; 333.3 nM,0.862
same,phenotypic distance,E34 [11]; 1000 nM,1.13
same,phenotypic distance,E34 [11]; 3000 nM,0.579
same,phenotypic distance,E31 [12]; 4.1 nM,0.849
same,phenotypic distance,E31 [12]; 12.3 nM,1.02
same,phenotypic distance,E31 [12]; 37 nM,1.47
same,phenotypic distance,E31 [12]; 111.1 nM,1.03
same,phenotypic distance,E31 [12]; 333.3 nM,0.83
same,phenotypic distance,E31 [12]; 1000 nM,0.791
same,phenotypic distance,E31 [12]; 3000 nM,0.951
same,phenotypic distance,E28 [13]; 4.1 nM,0.972
same,phenotypic distance,E28 [13]; 12.3 nM,1.17
same,phenotypic distance,E28 [13]; 37 nM,0.735
same,phenotypic distance,E28 [13]; 111.1 nM,1.32
same,phenotypic distance,E28 [13]; 333.3 nM,0.871
same,phenotypic distance,E28 [13]; 1000 nM,1.28
same,phenotypic distance,E28 [13]; 3000 nM,0.95
same,phenotypic distance,E21 [14]; 4.1 nM,0.487
same,phenotypic distance,E21 [14]; 12.3 nM,0.521
same,phenotypic distance,E21 [14]; 37 nM,0.591
same,phenotypic distance,E21 [14]; 111.1 nM,1.08
same,phenotypic distance,E21 [14]; 333.3 nM,0.913
same,phenotypic distance,E21 [14]; 1000 nM,0.784
same,phenotypic distance,E21 [14]; 3000 nM,0.381
